Assay results from US20020086862A1, “Novel compounds” (AstraZeneca AB, priority 1998, published 2002).

| melting point [°C] | SMILES |
| --- | --- |
| 162 to 163 | Cc1ccc(Cn2nc(-c3ccccc3Cl)[nH]c2=S)cc1 [Example 50, 5-(2-Chlorophenyl)-1,2-dihydro-2-(4-methylphenyl)methyl-3H-1,2,4-triazole-3-thione] |
| 211 to 215 | CC(C)(C)c1ccc(Cn2nc(-c3ccccc3Cl)[nH]c2=S)cc1 [Example 51, 5-(2-Chlorophenyl)-1,2-dihydro-2-[(4(1,1-dimethylethyl)phenyl)methyl]-3H-1,2,4-triazole-3-thione] |
| 137 to 138 | S=c1[nH]c(-c2ccccc2Cl)nn1Cc1cccc(Oc2ccccc2)c1 [Example 52, 5-(2-Chlorophenyl)-1,2-dihydro-2-[(3-phenyloxy)phenylmethyl]-3H-1,2,4-triazole-3-thione] |
| 167 to 168 | FC(F)(F)c1ccc(Cn2nc(-c3ccccc3Cl)[nH]c2=S)cc1 [Example 53, 5-(2-Chlorophenyl)-1,2-dihydro-2-[[4-(trifluoromethyl)phenyl]methyl]-3H-1,2,4-triazole-3-thione] |
| 153 to 154 | COc1ccc(Cn2nc(-c3ccccc3Cl)[nH]c2=S)cc1 [Example 54] |
| 183 to 184 | S=c1[nH]c(-c2ccc(Oc3ccccc3)cc2)nn1Cc1cccc(Cl)c1 [Example 55, 2-[(3-Chlorophenyl)methyl]-5-(4-phenoxyphenyl)-1,2-dihydro-3H-1,2,4-triazole-3-thione] |
| 208 to 209 | S=c1[nH]c(-c2cccnc2)nn1Cc1cccc(Cl)c1 [Example 56, 2-[(3-Chlorophenyl)methyl]-5-(3-pyridinyl)-1,2-dihydro-3H-1,2,4-triazole-3-thione] |
| 213 | S=c1[nH]c(-c2ccccc2)nn1Cc1cccc(Cl)c1 [Example 57, 2-[(3-Chlorophenyl)methyl]-5-phenyl-1,2-dihydro-3H-1,2,4-triazole-3-thione] |
| 125 to 126 | Fc1cccc(Cn2nc(-c3ccccc3Cl)[nH]c2=S)c1 [Example 58, 5-(2-Chlorophenyl)-1,2-dihydro-2-[(3-fluorophenyl)methyl]-3H-1,2,4-triazole-3-thione] |
| 189 to 190 | S=c1[nH]c(-c2ccccc2Cl)nn1Cc1ccccc1I [Example 59, 5-(2-Chlorophenyl)-1,2-dihydro-2-[(2-iodophenyl)methyl]-3H-1,2,4-triazole-3-thione] |
| 166 to 167 | Cc1ccc(C)c(Cn2nc(-c3ccccc3Cl)[nH]c2=S)c1 [Example 60] |
| 161 to 163 | Fc1ccc(F)c(Cn2nc(-c3ccccc3Cl)[nH]c2=S)c1 [Example 61, 5-(2-Chlorophenyl)-1,2-dihydro-2-[(2,5-difluorophenyl)methyl]-3H-1,2,4-triazole-3-thione] |
| 256 to 258 | O=[N+]([O-])c1ccc(-c2nn(Cc3cccc(Cl)c3)c(=S)[nH]2)cc1 [Example 62, 2-[(3-Chlorophenyl)methyl]-5-(4-nitrophenyl)-1,2-dihydro-3H-1,2,4-triazole-3-thione] |
| 204 to 207 | S=c1[nH]c(-c2cncnc2)nn1Cc1cccc(Cl)c1 [Example 63, 2-[(3-Chlorophenyl)methyl]-5-(pyrrndin-5-yl) 1,2-dihydro-3H-1,2,4-triazole-3-thione] |
| 161 to 163 | N#Cc1cccc(Cn2nc(-c3ccccc3Cl)[nH]c2=S)c1 [Example 64, 5-(2-Chlorophenyl)-1,2-dihydro-2-[(3-cyanophenyl)methyl]-3H-1,2,4-triazole-3-thione] |
| 182 to 183 | O=[N+]([O-])c1ccc(Cn2nc(-c3ccccc3Cl)[nH]c2=S)cc1 [Example 65, 5-(2-Chlorophenyl)-1,2-dihydro-2-[(4-nitrophenyl)methyl]-3H-1,2,4-triazoe-3-thione] |
| 131 to 133 | S=c1[nH]c(-c2ccccc2Cl)nn1CCc1ccccc1 [Example 66, 5-(2-Chlorophenyl)-1,2-dihydro-2-(2-phenyl)ethyl-3H-1,2,4-triazole-3-thione] |
